PMC7669869, “AdipoR1/AdipoR2 dual agonist recovers nonalcoholic steatohepatitis and related fibrosis via endoplasmic reticulum-mitochondria axis” (Nature Communications, 2020)
Non-standard residues stand in square brackets, D forms with d. Residues, ends and D or L forms follow the SMILES beside them. Nva = CCC[C@H](N)C(=O)O

Assays:
HFD induced NASH mice [1] = test: HFD mice: serum and liver biochemical assays (ALT, FFA, LDL-C, hepatic TG, glycogen); format: in vivo, mouse
Protocol: (§1) Male C57BL/6J mice of 6–8 weeks of age (20–24 g) were used in these experiments including the NAFLD model and liver fibrosis model. The mice were purchased from Guangdong Medical Laboratory Animal Center and housed in standard isolator cages and maintained on a room temperature of 25 °C and a 12 h:12 h light/dark cycle. At the end of the experiments, mice were fasted 8 h prior to sacrifice. Liver tissue and/or epididymal adipose tissue were flash frozen in liquid nitrogen (with or without RNAlater (TransGen Biotech, China)) and stored at −80 °C for future use, or fixed in 10% paraformaldehyde for histological assays. Blood samples were obtained from the posterior venous plexus of the eyes of anesthetized mice, Blood was separated by centrifugation at 1000g for 15 min Serum was then stored at −80 °C. The ethical approval has been obtained from Animal Care and Use Committee of the Sun Yat-sen University. All animals were maintained in pathogen-free conditions and cared for in accordance with policies and certification of the Association for Assessment and Accreditation of Laboratory Animal Care International (AAALAC International).
(§2) The NASH model was conducted with feeding a HFD for 16 weeks combine with a MCD diet (Methionine/Choline Deficient Diet, Medicience, China) in the last 4 weeks. […]
The levels of ALT, AST, TC and TG in serum were determined using certain commercial assay kits (Nanjing Jiancheng Bioengineering Institute, China). Fasting adiponectin and insulin were quantified in plasma samples using corresponding commercially available Elisa kits (Cloud-Clone Crop, USA).
The levels of TG and HYP in liver tissue were detected with certain commercial assay kit (Nanjing Jiancheng Bioengineering Institute, China). […] The cryostat-cut slices were stained with freshly prepared Oil Red O working solution for 7 min Two independent experimenters who were blinded to the treatment evaluated the staining slides and analyzed the score for steatosis, glucogen accumulation and collagen proliferation area.

HFD induced NASH mice [2] = test: HFD induced NASH (NAFLD) mice: weight gain, liver appearance; format: in vivo, mouse; conditions: JT003 500 μg kg−1 i.p. daily 4 weeks, vs HFD, in words
Protocol: as §1, §2

[3] = test system: CCl4 induced liver fibrosis mice; test: CCl4 induced liver fibrosis mice: liver appearance, body weight, HE, Sirius red, IHC (αSMA, COL1α1, CD68); format: in vivo, mouse; conditions: in words
Protocol: Male mice liver fibrosis was induced by intraperitoneal injection of 20% CCl4 (Sigma, USA) diluted in corn oil (Aladdin, China) every 3 days for 6 weeks (n = 6; 5 ml kg^−1 body weight). Mice injected with equivalent volume of corn oil serves as control group (n = 6). Liver fibrosis mice treated with JT003 for 3 weeks were used to evaluated the pharmacological effects (n = 6; 500 μg kg^−1; daily intraperitoneal injection).
The levels of TG and HYP in liver tissue were detected with certain commercial assay kit (Nanjing Jiancheng Bioengineering Institute, China). Formalin-fixed liver tissues were embedded in paraffin, sectioned into 5 μm slices. After deparaffinization and rehydration of the section slices, they were stained with Haematoxylin and Eosin or Periodic Acid-Schiff. For the detection of liver collagen content, Sirius Red staining for collagen was performed. OCT-embedded frozen liver tissues were sectioned into 12 μm slices, and Oil Red O staining was performed. The cryostat-cut slices were stained with freshly prepared Oil Red O working solution for 7 min Two independent experimenters who were blinded to the treatment evaluated the staining slides and analyzed the score for steatosis, glucogen accumulation and collagen proliferation area.
Paraffin-embedded liver slices were deparaffinized and rehydrated, antigen retrieval was performed under the high pressure and temperature in 0.01 M sodium citrate buffer (pH = 6.0). To quench the endogenous peroxidase activity, the slices were then incubated with 1% hydrogen peroxide in methanol for 10 min in room temperature. Then slices were incubated with corresponding primary antibodies. After washing, HRP-conjugated secondary antibodies specific to the species of the primary antibodies were used. After the section were developed with DAB, hematoxylin staining was performed for cell counting.

PA induced HepG2 cells = test: Mitochondrial content assay (MitoTracker), PA induced HepG2; format: cell-based, human; conditions: HepG2, PA + 200 μM JT003; in words
Protocol: 60–70% confluent LX2 cells and PA induced HepG2 cells were washed with PBS twice and incubated with 100 nM MitoTracker Green FM (YeSan, China) at 37 °C for 30 min For fluorescence intensity assay, cells were harvested by using trypsin/EDTA (ThermoFisher Scientific, USA) and resuspended in PBS. The excitation and emission wavelengths were 490 and 516 nm, respectively, and the intensity values corrected for total protein level (mg ml^−1). For mitochondrial visualized assay, after incubated with MitoTracker Green FM, the adherent cells were washed with PBS and a single in-focus optical section was acquired with confocal microscopy (Olympus, Japan). The nucleus was stained with Hochest33342 (ThermoFisher Scientific, USA). For every section n = 50 cells, images were analyzed and quantified by ImageJ.

AdipoR2 = molecular target: T1, AdipoR2 (Homo sapiens, UniProt Q86V24); test: HTRF binding, AdipoR2 overexpression HEK293 cells; conditions: in words
T1 construct: His; host or cells: HEK293
T1 sequence (Q86V24 1-386): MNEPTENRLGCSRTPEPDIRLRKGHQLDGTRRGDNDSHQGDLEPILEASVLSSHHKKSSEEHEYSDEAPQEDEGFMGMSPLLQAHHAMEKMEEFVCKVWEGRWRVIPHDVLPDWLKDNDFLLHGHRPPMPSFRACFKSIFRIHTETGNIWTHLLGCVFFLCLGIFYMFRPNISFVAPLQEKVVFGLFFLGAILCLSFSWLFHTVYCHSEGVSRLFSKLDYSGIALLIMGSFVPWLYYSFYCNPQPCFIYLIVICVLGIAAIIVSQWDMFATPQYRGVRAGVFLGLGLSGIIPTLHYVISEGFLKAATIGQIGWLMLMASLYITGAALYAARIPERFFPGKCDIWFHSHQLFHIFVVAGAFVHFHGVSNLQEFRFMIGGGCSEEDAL
Protocol: The expression plasmid of AdipoR1 and AdipoR2 were synthesized and codon optimized by Genescript (Nanjing, China) for their expression in HEK293 cell line. The concentration of FITC-JT003 was 0, 0.1, 0.25, 0.5, 1, 2.5 or 5 μM respectively. Unlabeled peptide JT003 was used as the control to measure the non-specific signal. 10E4 AdipoR1 and AdipoR2 overexpression cells, anti-His-Tb (ThermoFisher Scientific, USA) and JT003-FITC were added into a 384-well plate, with a total volume of 25μl. The mixtures were incubated at room temperature for 30 min in the dark. Fluorescent values at 520 nm and 620 nm were measured for Kd calculation.

SMILES: CCC[C@H](NC(=O)[C@@H]1CCCN1)C(=O)N[C@@H](CC(C)C)C(=O)N[C@@H](Cc1ccc(O)cc1)C(=O)N[C@@H](Cc1ccc(O)cc1)C(=O)N[C@@H](Cc1ccccc1)C(=O)N[C@@H](C)C(N)=O [JT003] (H-P[Nva]LYYFA-NH2)
- decrease of the circulating lipid in the HFD group (HFD induced NASH mice [1]; JT003 500 μg kg−1, in words): reverted
- Hepatocytes TG and serum LDL-C contents (HFD induced NASH mice [1]; JT003 500 μg kg−1 i.p. daily 4 weeks, in words): obviously reduced
- ALT level (HFD induced NASH mice [1]; JT003 500 μg kg−1 i.p. daily 4 weeks, vs HFD, in words): reduced
- weight gain (HFD induced NASH mice [2]): significantly reduced the weight gain
- inflammation, necrosis and fibrosis area (HE and sirius red staining) ([3]; CCl4 induced liver fibrosis mice, administration dosages of 0.5 mg kg−1 and 2 mg kg−1): significantly decreased
- liver adhesion (dissected assays) ([3]; CCl4 induced liver fibrosis mice): reduced
- IHC staining of CD68 (macrophage infiltration) ([3]; CCl4 mice, JT003 500 μg kg−1): markedly reduced the inflammation
- immunohistochemical staining for αSMA and COL1α1 ([3]; CCl4 mice, JT003 500 μg kg−1): confirmed the improvement of liver fibrosis
- mitochondrial content / biogenesis in PA induced HepG2 (PA induced HepG2 cells): mitochondrial biogenesis was improved
- Kd value for AdipoR2 compared to JT006 and ADP355 (AdipoR2): significantly lower Kd value
